Assay results reported in US12458647B2, “Macrocyclic derivative and use thereof” (Guangzhou Joyo Pharmatech Co., Ltd., priority 2022, dated 2025).

Tests used:
Format in all cases: cell-based
SW620 cells = assay: In vitro cell proliferation experiment (5 days), SW620; conditions: SW620, 5 days; read-out: Inhibitory Activity IC50
Procedure: (§1) RPMI 1640 medium, DMEM, Ham's F12 medium, F12K medium, IMDM and penicillin/streptomycin antibiotics were purchased from Gibco, fetal bovine serum was purchased from Hyclone, Envision multilabel plate reader (PerkinElmer). […]
(§2) The test compound was diluted by 5-fold to 8 concentrations with a pipette, i.e., from 2 mM to 25.6 nM, and replicate wells were set up for the experiment. […] Another cell plate was prepared, and the signal value was read as the maximum value (the maximum value in the following equation) on the day of dosing for data analysis.
(§3) 50 μL of cell viability chemiluminescent detection reagent was added to the cell plate and incubated at room temperature for 30 minutes to stabilize the luminescence signal. A multilabel plate reader was used for reading. […]

A375 cell line = assay: In vitro cell proliferation experiment (5 days), A375 (wild-type independent cell line); conditions: A375, 5 days; read-out: Inhibitory Activity IC50
Procedure: as §1, §2, §3

[1] = tested on: p-ERK level in AsPC-1 cells; assay: Detection of p-ERK level in AsPC-1 cells (HTRF); conditions: 3 hours incubation; read-out: AsPC-1 pERK IC50
Procedure: AsPC-1 cells were purchased from ATCC: RPMI-1640 medium was purchased from Gibco; fetal bovine serum was purchased from Hyclone; Advanced Phospho-ERK1/2(THR202/TYR204) KIT was purchased from Bioauxilium-Advanced Phospho; ERK1/2(THR202/TYR204) KIT components were: Advanced PhosphoERK1/2 Eu Cryptate antibody, Advanced PhosphoERK1/2 d2 antibody, Blocking reagent (stock solution 100×), Lysis buffer #1 (stock solution 4×). Detection buffer (ready-to-use), with a storage temperature of ≤−16° C. for all.
(1) The cells were seeded in a white-bottomed 384-well cell culture plate, 8 μL of cell suspension per well, each well containing 7,500 cells. The cell plate was placed in a carbon dioxide incubator and incubated overnight at 37° C.;
(2) The test compound was diluted with 100% DMSO to 3 mM as the first concentration, and then diluted with a pipette to 10 concentrations of 3,000, 1,000, 300, 100, 30, 10, 3, 1, 0.3 and 0.1 μM. 2 μL of the compound was taken and added to 198 μL of cell starvation medium, mixed well, 15 μl, of compound solution was taken and added to 35 μL of cell starvation medium and mixed well. […]
(5) After incubation, a multilabel plate reader was used to read the HTRF excitation: 320 nm, emission: 615 nm, and 665 nm. […]

IC50 (SW620 cells): 0.2 nM
IC50 (A375 cell line): > 6000 nM
IC50 [1]: 0.3 nM
SMILES: CCn1c(-c2cc(N3CCN(C)CC3)cnc2C(C)OC)c2c3cc(ccc31)-c1csc(n1)CC(NC(=O)C1C(C)C1C)C(=O)N1NC(C(=O)OCC(C)(C)C2)C2CC1C2 (single isomer, unassigned) [Compound 6A]
